Among the data in ChEMBL document CHEMBL1201862, “PubChem BioAssay data set” (2004) are EC50, IC50 and AC50 values, retold here.

Assay [1] addresses Peroxisome proliferator-activated receptor gamma/Nuclear receptor coactivator 1 (Homo sapiens, UniProt P37231). The format is functional.
The target in assay [2] is T1, Dual specificity protein phosphatase 6 (Rattus norvegicus, UniProt Q64346).
T1 sequence (Q64346 whole entry): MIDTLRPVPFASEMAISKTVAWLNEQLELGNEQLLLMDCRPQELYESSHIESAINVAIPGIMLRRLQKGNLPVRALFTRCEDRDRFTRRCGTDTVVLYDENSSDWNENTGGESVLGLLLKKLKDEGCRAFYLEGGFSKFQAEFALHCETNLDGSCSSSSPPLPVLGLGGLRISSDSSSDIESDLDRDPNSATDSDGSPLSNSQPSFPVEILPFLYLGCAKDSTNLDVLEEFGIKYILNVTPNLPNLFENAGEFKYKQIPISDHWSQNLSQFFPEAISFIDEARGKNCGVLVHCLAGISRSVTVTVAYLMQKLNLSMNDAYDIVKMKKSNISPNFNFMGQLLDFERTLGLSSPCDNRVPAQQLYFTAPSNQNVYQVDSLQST
The experiment in a line: SAR analysis of inhibitors of MKP-3 - Set 2. [Related pubchem assays (depositor defined):AID1055, AID1661, AID425, AID553, AID566]. It counts as functional.

The target of assay [3] is T2, Tyrosine-protein phosphatase non-receptor type 7 (Homo sapiens, UniProt P35236).
T2 sequence (P35236 whole entry): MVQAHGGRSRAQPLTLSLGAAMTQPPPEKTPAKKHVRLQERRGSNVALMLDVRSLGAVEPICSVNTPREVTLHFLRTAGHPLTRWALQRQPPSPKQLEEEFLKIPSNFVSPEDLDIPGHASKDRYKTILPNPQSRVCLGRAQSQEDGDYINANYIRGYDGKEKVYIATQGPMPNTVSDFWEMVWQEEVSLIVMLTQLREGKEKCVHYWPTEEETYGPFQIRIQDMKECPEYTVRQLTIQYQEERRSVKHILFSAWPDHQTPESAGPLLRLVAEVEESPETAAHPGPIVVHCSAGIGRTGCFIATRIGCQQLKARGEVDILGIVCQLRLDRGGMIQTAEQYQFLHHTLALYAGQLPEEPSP
Put plainly: redox-dependent HePTP inhibition, mechanism study, biochemical, fluorescence (AID 2068). The format is functional.

For assay [4], the target named is T3, Dual specificity protein phosphatase 3 (Homo sapiens, UniProt P51452). The experiment in a line: VHR1 phosphatase inhibitors, primary screen, biochemical, absorbance, uHTS (AID 1654).
T3 sequence (P51452 whole entry): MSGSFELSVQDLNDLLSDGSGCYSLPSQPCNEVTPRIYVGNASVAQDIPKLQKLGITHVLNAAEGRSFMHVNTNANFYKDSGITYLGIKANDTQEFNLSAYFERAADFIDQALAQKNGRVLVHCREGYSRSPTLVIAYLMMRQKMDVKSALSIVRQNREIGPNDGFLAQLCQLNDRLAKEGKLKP
Assay [5] addresses T3, Dual specificity protein phosphatase 3. Put plainly: VHR1 phosphatase inhibitors, biochemical (AID 1878).
In assay [6] the target is Glucose-6-phosphate 1-dehydrogenase (Homo sapiens, UniProt P11413). Put plainly: human G6PD enzyme inhibitors, dose response, selectivity assay for P. falciparum G6PD inhibitor project, biochemical, fluorescence (AID 504792). The format is functional.
Sequence of Glucose-6-phosphate 1-dehydrogenase (P11413 whole entry): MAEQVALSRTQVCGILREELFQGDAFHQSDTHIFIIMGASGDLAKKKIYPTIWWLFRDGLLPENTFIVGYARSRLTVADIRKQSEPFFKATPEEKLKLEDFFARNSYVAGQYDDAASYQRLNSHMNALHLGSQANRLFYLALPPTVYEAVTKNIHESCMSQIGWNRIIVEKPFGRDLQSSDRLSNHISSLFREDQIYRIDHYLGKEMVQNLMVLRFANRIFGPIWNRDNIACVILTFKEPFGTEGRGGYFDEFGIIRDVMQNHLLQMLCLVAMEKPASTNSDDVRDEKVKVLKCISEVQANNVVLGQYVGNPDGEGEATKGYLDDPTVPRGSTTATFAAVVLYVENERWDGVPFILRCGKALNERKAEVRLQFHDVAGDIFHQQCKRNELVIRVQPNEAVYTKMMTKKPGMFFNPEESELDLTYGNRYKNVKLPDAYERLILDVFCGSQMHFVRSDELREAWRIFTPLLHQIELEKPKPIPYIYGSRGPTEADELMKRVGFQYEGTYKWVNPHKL
Assay [7] deals with Peroxisome proliferator-activated receptor gamma/Nuclear receptor coactivator 3 (Homo sapiens, UniProt P37231). It counts as functional.
Assay [8] deals with T1, Dual specificity protein phosphatase 6. It counts as functional.
In assay [9] the target is DNA dC->dU-editing enzyme APOBEC-3G (Homo sapiens, UniProt Q9HC16). The experiment in a line: Dose Response confirmation of small molecule APOBEC3G DNA Deaminase Inhibitors via a fluorescence-based single-stranded DNA deaminase assay. [Related pubchem assays (depositor defined):AID493012, AID493028]. It counts as functional.
Sequence of DNA dC->dU-editing enzyme APOBEC-3G (Q9HC16 whole entry): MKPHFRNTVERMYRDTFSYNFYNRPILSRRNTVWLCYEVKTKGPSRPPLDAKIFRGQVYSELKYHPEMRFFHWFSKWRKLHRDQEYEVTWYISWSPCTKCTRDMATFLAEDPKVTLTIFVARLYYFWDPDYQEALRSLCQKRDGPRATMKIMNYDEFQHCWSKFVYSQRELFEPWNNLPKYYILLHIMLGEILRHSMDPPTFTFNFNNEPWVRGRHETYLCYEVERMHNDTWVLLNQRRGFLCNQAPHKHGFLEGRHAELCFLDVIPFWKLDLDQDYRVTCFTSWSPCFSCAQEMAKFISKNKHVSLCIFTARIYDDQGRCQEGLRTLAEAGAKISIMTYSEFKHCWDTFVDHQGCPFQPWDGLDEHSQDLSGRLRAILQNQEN
The target of assay [10] is Peroxisome proliferator-activated receptor gamma/Nuclear receptor coactivator 2 (Homo sapiens, UniProt P37231). It counts as functional.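 Note: agonist potency for raising coactivator recruitment to the receptor.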
The target of assay [11] is T3, Dual specificity protein phosphatase 3. The experiment in a line: SAR VHR1 Fluorescent Assay for In Vitro dose response studies. [Related pubchem assays (depositor defined):AID1654, AID1661, AID1878, AID1992, AID2004, AID2070, AID2085]. The format is functional.
For assay [12] the target is unchanged. Put plainly: SAR VHR1 Fluorescent Assay for In Vitro dose response studies Set 2. [Related pubchem assays (depositor defined):AID1654, AID1661, AID1878]. The format is functional.
The target of assay [13] is T1, Dual specificity protein phosphatase 6. The experiment in a line: MKP-3 phosphatase inhibitors, primary screen, biochemical, rat enzyme, in vitro (AID 425).
For assay [14], the target named is T2, Tyrosine-protein phosphatase non-receptor type 7. Put plainly: SAR analysis of chemical inhibitors of HePTP using a Fluorescent assay - Set 2. [Related pubchem assays (depositor defined):AID1059, AID1077, AID1661, AID2085, AID521]. The format is functional.
Assay [15] addresses DNA dC->dU-editing enzyme APOBEC-3A (Homo sapiens, UniProt P31941). The experiment in a line: APOBEC3A DNA deaminase inhibitors, dose response, biochemical (AID 504722). The format is functional.
In assay [16] the target is T3, Dual specificity protein phosphatase 3. Put plainly: SAR VHR1 absorbance Assay for In Vitro dose response studies. [Related pubchem assays (depositor defined):AID1654, AID1661, AID1878, AID1992, AID2004].
For another assay, the target named is Troponin, cardiac muscle (Homo sapiens, UniProt P19429+P45379+P63316). The experiment in a line: Fluorescence-based biochemical high throughput dose response assay for activators of the calcium sensitivity of cardiac Regulated Thin Filaments (RTF). [Related pubchem assays (depositor defined):AID493008, AID493018, AID504382, AID504383]. It counts as protein-complex assay.

Assay [17] deals with T4, Alkaline phosphatase, tissue-nonspecific isozyme (Homo sapiens, UniProt P05186).
T4 sequence (P05186 whole entry): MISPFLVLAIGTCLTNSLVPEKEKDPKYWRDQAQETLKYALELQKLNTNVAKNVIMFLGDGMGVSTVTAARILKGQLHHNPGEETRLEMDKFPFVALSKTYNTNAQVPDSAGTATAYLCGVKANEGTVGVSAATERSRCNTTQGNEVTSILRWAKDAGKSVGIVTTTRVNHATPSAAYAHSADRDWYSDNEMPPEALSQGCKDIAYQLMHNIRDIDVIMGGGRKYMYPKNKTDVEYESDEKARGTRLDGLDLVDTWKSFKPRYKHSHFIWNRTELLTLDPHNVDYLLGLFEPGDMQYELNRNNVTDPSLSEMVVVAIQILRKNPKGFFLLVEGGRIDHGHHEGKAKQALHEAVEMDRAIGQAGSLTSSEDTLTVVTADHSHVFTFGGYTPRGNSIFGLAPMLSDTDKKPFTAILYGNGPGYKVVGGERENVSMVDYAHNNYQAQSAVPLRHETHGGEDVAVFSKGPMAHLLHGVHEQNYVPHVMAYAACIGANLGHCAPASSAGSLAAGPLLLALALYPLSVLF
The experiment in a line: TNAP enzyme inhibition by screening hits, dose response, selectivity assay for mouse IAP inhibitor project, biochemical, human TNAP, uHTS hits (AID 488906). It counts as functional.

Assay [18] has as its target Intestinal-type alkaline phosphatase (Homo sapiens, UniProt P09923). Put plainly: activation of human intestinal alkaline phosphatase – biochemical, dose response (AID 488873). The format is functional.
Assay [19] has as its target Intestinal-type alkaline phosphatase (Mus musculus, UniProt P24822). The experiment in a line: PubChem AID 488785. It counts as functional.
Another assay deals with Hexokinase HKDC1 (Homo sapiens, UniProt Q2TB90). Put plainly: HKDC1 hexokinase activators, dose response, biochemical, W721R variant (AID 504730). The format is functional.
Sequence of Hexokinase HKDC1 (Q2TB90 whole entry): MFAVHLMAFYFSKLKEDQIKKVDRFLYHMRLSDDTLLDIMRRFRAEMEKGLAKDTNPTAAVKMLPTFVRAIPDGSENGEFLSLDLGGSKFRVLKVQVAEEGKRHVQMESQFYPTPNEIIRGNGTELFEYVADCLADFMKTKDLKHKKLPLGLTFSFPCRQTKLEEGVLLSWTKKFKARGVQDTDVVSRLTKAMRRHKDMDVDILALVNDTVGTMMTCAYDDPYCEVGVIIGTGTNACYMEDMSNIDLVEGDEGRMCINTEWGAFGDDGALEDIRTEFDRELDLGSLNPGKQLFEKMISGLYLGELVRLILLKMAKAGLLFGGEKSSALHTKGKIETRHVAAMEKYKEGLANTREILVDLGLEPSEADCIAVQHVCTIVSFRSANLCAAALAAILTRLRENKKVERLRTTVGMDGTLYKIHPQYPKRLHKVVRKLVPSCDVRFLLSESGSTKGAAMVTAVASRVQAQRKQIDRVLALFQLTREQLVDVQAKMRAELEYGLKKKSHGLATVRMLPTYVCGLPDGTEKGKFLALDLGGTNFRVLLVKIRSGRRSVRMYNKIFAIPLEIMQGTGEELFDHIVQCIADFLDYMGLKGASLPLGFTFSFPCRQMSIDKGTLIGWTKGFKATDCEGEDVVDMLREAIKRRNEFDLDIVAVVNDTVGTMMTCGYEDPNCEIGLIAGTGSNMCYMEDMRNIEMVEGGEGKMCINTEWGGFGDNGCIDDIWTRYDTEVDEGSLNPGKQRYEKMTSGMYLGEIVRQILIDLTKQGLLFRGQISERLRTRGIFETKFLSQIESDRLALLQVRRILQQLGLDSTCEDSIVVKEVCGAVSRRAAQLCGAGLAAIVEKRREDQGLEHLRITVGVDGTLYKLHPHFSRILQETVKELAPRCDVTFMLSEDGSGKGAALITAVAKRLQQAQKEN
In the next assay the target is Hexokinase-1 (Homo sapiens, UniProt P19367). The experiment in a line: hexokinase 1 activators, dose response, selectivity assay for HKDC1 activator project, biochemical (AID 504762). The format is functional.
The nature of assay [20]: Shn3 3'UTR reporter inhibitors, dose response, cell-based, Clone20 osteoblasts, firefly luciferase, cherry-picked (AID 624132).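 Note: firefly luciferase luminescence from reporter carrying the Shn3 3'UTR in osteoblasts.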 It counts as functional.
A further assay deals with Mucolipin-3 (Homo sapiens, UniProt Q8TDD5). Put plainly: Fluorescence counterscreen assay for […] agonists: dose response cell-based high-throughput screening assay to identify agonists of the transient receptor potential channel ML3 (TRPML3). [Related pubchem assays: 1424, 1448 ]. The format is functional. A general note: The purpose of a counterscreen is to sort out artefacts and off-target activity.
Sequence of Mucolipin-3 (Q8TDD5 whole entry): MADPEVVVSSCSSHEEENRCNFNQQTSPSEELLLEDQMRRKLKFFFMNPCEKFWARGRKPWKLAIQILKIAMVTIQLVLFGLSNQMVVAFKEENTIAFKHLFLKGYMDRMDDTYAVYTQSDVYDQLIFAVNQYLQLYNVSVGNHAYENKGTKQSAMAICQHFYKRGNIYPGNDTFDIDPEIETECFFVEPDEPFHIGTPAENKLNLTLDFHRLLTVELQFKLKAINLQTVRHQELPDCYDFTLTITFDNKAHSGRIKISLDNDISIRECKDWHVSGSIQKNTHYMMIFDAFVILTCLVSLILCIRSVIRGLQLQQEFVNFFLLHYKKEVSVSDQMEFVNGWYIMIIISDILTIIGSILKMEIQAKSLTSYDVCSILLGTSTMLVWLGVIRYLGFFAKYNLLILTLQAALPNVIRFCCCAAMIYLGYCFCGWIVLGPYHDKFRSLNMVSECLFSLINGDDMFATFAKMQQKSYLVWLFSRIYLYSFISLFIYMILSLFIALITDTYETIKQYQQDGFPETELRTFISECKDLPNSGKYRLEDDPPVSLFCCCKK

Assay [21] in a line: control 3'UTR Renilla luciferase suppression, dose response, counter-screen for Shn3 inhibitor project, cell-based, Clone20-Shn3RL, cherry-picked (AID 624133). It counts as functional.
For the next assay, the target named is Ion channel NompC (Danio rerio, UniProt Q7T1G6). The experiment in a line: Dose response cell-based high-throughput screening assay for agonists of the transient receptor potential channel N1 (TRPN1). [Related pubchem assays (depositor defined):AID1424, AID1448]. It counts as functional.
Assay [22] in a line: HepG2 cell cytotoxicity, dose response, cytotoxicity control for Shn3 inhibitor project, CellTiter-Glo, cherry-picked (AID 624134). The format is functional, cell-based.
The target of assay [23] is Kappa-type opioid receptor (Homo sapiens, UniProt P41145). Put plainly: SAR analysis of small molecule agonists of the kappa opioid receptor via a luminescent beta-arrestin assay - Set 3. [Related pubchem assays (depositor defined):AID1777, AID1785, AID1786, AID1966, AID2133, AID2136, AID2284, AID2500]. The format is functional.
Assay [24] concerns the target T5, Cannabinoid receptor 1 (Homo sapiens, UniProt P21554). The experiment in a line: SAR analysis of agonists of the Cannabinoid Receptor 1 using an Image-Based Assay - Set 3. [Related pubchem assays (depositor defined):AID1961, AID1965]. It counts as functional.
For assay [25], the target named is T6, G-protein coupled receptor 35 (Homo sapiens, UniProt Q9HC97). Put plainly: SAR analysis of Antagonists of the GPR35 Receptor using an Image-Based Assay - Set 4. [Related pubchem assays (depositor defined):[…]]. The format is functional.
T6 sequence (Q9HC97 whole entry): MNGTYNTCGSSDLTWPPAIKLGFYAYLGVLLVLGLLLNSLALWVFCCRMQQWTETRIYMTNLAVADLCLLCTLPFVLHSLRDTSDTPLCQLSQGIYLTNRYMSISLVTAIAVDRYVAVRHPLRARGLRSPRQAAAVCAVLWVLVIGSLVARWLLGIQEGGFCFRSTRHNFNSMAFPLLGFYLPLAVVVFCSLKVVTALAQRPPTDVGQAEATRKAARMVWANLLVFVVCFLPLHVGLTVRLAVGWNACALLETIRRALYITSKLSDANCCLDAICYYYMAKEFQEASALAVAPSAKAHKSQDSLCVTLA
For assay [26], the target named is T7, Cannabinoid receptor 2 (Homo sapiens, UniProt P34972). The experiment in a line: SAR analysis of agonists of the Cannabinoid Receptor 2 using an Image-Based Assay - Set 2. [Related pubchem assays (depositor defined):AID1961, AID1965]. The format is functional.
T7 sequence (P34972 whole entry): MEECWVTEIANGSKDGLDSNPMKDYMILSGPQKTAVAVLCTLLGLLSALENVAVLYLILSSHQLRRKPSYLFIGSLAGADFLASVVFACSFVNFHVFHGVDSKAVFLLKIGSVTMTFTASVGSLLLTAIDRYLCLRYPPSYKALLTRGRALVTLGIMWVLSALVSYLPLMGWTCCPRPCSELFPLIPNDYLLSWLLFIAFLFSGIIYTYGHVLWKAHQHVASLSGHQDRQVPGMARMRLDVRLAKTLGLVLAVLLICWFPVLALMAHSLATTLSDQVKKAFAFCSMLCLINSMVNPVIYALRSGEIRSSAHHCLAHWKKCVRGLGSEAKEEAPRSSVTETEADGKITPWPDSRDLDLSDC
Assay [27] has as its target G-protein coupled receptor 55 (Homo sapiens, UniProt Q9Y2T6). Put plainly: SAR analysis of selective Agonists of GPR55 using an Image-Based Assay - Set 2. [Related pubchem assays (depositor defined):AID1961, AID1965]. It counts as functional.
Assay [28] addresses T5, Cannabinoid receptor 1. Put plainly: SAR analysis of antagonists of the Cannabinoid Receptor 1 using an Image-Based Assay - Set 3. [Related pubchem assays (depositor defined):AID1961, AID1965]. The format is functional.
In assay [29] the target is T6, G-protein coupled receptor 35. The experiment in a line: SAR analysis of Agonists of the GPR35 Receptor using an Image-Based Assay - Set 3. [Related pubchem assays (depositor defined):AID1961, AID1965]. The format is functional.
Assay [30] has as its target T7, Cannabinoid receptor 2. Put plainly: SAR analysis of antagonists of the Cannabinoid Receptor 2 using an Image-Based Assay - Set 2. [Related pubchem assays (depositor defined):AID1961, AID1965]. It counts as functional.

The source made the active and inactive calls.

T5 sequence (P21554 whole entry): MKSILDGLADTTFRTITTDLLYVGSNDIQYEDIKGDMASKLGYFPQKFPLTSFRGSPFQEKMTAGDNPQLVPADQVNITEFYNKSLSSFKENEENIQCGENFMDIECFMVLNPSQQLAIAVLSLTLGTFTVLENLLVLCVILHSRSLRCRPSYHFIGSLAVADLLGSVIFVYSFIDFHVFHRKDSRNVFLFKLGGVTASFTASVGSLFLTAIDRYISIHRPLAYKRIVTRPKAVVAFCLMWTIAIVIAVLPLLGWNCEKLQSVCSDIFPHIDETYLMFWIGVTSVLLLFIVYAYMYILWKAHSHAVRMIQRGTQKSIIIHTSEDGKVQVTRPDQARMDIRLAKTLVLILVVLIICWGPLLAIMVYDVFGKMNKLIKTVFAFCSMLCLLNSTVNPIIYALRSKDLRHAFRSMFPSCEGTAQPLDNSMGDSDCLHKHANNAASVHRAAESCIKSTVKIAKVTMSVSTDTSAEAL
Sequence of DNA dC->dU-editing enzyme APOBEC-3A (P31941 whole entry): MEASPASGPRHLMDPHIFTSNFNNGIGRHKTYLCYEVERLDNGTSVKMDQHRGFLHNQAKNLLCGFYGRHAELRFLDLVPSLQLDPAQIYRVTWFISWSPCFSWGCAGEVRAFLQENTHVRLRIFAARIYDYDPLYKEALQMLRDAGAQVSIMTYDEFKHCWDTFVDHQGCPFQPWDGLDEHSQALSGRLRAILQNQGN
Sequence of Intestinal-type alkaline phosphatase (Homo sapiens, UniProt P09923) (P09923 whole entry): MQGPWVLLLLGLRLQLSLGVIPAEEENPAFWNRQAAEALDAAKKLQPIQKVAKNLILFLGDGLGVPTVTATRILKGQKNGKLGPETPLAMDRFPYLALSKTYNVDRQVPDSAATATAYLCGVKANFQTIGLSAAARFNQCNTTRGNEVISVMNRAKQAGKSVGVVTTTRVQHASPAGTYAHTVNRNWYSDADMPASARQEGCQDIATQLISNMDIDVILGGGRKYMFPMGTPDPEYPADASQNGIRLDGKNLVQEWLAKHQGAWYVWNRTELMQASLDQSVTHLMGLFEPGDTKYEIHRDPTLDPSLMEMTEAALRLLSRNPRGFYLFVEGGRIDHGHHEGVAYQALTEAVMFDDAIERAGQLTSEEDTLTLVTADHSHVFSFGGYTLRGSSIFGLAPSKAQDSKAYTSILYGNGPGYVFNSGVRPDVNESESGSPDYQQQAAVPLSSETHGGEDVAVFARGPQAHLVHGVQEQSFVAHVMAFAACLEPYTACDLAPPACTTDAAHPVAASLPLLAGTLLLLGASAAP
Sequence of G-protein coupled receptor 55 (Q9Y2T6 whole entry): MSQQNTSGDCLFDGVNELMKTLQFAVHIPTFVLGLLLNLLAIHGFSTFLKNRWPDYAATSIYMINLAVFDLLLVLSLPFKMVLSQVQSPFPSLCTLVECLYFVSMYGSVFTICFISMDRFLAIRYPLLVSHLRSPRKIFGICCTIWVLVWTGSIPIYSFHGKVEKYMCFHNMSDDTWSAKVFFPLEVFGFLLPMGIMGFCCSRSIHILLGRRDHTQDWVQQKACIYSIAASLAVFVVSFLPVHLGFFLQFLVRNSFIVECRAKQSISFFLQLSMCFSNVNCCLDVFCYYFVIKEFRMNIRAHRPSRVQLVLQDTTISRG

Usually EC50 stands for the concentration at which the effect is half-maximal. Broadly, the IC50 is the concentration needed to halve the response being measured. As to `Cc1ccc(-n2c(N)c(C(=O)N3CCN(C)CC3)sc2=S)cc1`, the EC50 in [1], in assay [7] and in assay [10] was > 79.4 µM (not active) each time. The IC50 was > 100 µM (inactive) in [2]; 0.0144 µM (active) in assay [3]; 2.33 µM (active) in [4]; 5.73 µM (active) in assay [5]; > 80 µM (inactive) in assay [6]; > 99 µM (inactive) in assay [8]. Besides, the concentration for half-maximal inhibition (IC50) in assay [9] is 7.99 µM (active); in assay [11], > 99 µM (inactive); in assay [12] it was 0.402 µM (active); in assay [13], > 158 µM (not active); in [14], 0.455 µM (active); in [15], > 100 µM (inactive). For the same compound, in assay [16], the half-inhibitory concentration (IC50) was 0.25 µM (active).

On to `C=CCN1C(=O)c2ccccc2NC1c1cc(Br)cs1` (stereo not given), for which, on Troponin, cardiac muscle, the EC50 is > 71.5 µM (inactive).

As to `CN(CC(=O)Nc1cccc(Cl)c1)S(=O)(=O)c1ccc2[nH]c(=O)oc2c1`, the figures for the IC50 in assay [17] and in assay [19] were 7.87 µM (active) and 9.88 µM (active), respectively. Besides, the EC50 in [18] was > 100 µM (inactive).

Take `CC12CCC(C(=O)N/N=C/c3ccc(O)cc3O)(OC1=O)C2(C)C` (stereo not given): the EC50 on Hexokinase HKDC1 and on Hexokinase-1 was > 80 µM (inactive) throughout.

For orientation: AC50 means the midpoint of the concentration-response curve, whichever way the signal moves. On to `Cc1ccc([N+](=O)[O-])cc1NC(=O)Nc1cccc(F)c1`, for which the AC50 was 2.21 µM (active) in assay [20], 2.13 µM (active) in assay [21] and 7.82 µM (active) in [22]. The 50% effective concentration (EC50) was > 29.9 µM (not active) at Mucolipin-3 and > 29.9 µM (inactive) at Ion channel NompC.

Consider `FC(F)(F)c1cc(CSc2nnc(-c3ccncc3)n2Cc2ccco2)ccc1Cl`, for which the EC50 in assay [23] was > 20 µM (inactive).

For the compound `CC(C)Oc1ccc(S(=O)(=O)N2CCOCC2)cc1NC(=O)c1cc2ccccc2s1`, the EC50 (at Cannabinoid receptor 1 [24]; at Cannabinoid receptor 2 [26]; in assay [27]; in assay [29]) was > 32 µM (inactive) throughout. The IC50 (in [25]; on Cannabinoid receptor 1 [28]; at Cannabinoid receptor 2 [30]) was > 32 µM (inactive) throughout.
